PubChem BioAssay (NCI)
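Cells were grown in 96-well plates and exposed to each compound for 48 hours at five concentrations; endpoints were interpolated linearly between bracketing concentrations, or set to the highest concentration if not reached. Abbreviation: GI50, concentration required for 50% inhibition of growth. Definition used: TGI = concentration required for complete inhibition of growth.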

Tests used:
Test in all cases: NCI tumour cell line growth inhibition, 48 h
786-0 renal = tested on: 786-0 renal
COLO 205 colon = tested on: COLO 205 colon
HCC-2998 colon = tested on: HCC-2998 colon
HS 578T breast = tested on: HS 578T breast
HT29 colon = tested on: HT29 colon
K-562 leukemia = tested on: K-562 leukemia
NCI-H522 lung = tested on: NCI-H522 lung
OVCAR-3 ovarian = tested on: OVCAR-3 ovarian
SF-539 CNS = tested on: SF-539 CNS
UACC-257 melanoma = tested on: UACC-257 melanoma

| Compound | GI50 (786-0 renal) [µM] | TGI (786-0 renal) [µM] | GI50 (COLO 205 colon) [µM] | TGI (COLO 205 colon) [µM] | GI50 (HCC-2998 colon) [µM] | TGI (HCC-2998 colon) [µM] | GI50 (HS 578T breast) [µM] | TGI (HS 578T breast) [µM] | GI50 (HT29 colon) [µM] | TGI (HT29 colon) [µM] | GI50 (K-562 leukemia) [µM] | TGI (K-562 leukemia) [µM] | GI50 (NCI-H522 lung) [µM] | TGI (NCI-H522 lung) [µM] | GI50 (OVCAR-3 ovarian) [µM] | TGI (OVCAR-3 ovarian) [µM] | GI50 (SF-539 CNS) [µM] | TGI (SF-539 CNS) [µM] | GI50 (UACC-257 melanoma) [µM] | TGI (UACC-257 melanoma) [µM] |
| --- | --- | --- | --- | --- | --- | --- | --- | --- | --- | --- | --- | --- | --- | --- | --- | --- | --- | --- | --- | --- |
| CCN(Cc1ccc(F)cc1)c1ccc(CO)c(C(F)(F)F)c1 | 12.4 | 26.2 | 14.4 | 27.5 | 14.9 | 28.2 | 14.1 | 40.3 | 14.3 | 31.2 | 10.4 | 52.1 | 12.5 | 26.9 | 6.91 | 19.6 | 15.5 | 28.9 | 1.76 | 7.01 |
| C=C1C(=O)O[C@H]2[C@H]1CC/C(COC(=O)NCc1c[nH]c3ccc(F)cc13)=C\CC[C@@]1(C)O[C@@H]21 | 0.899 | 2.43 | 1.39 | 2.95 | 1.77 | 3.41 | 3.36 | 26.6 | 1.07 | 2.58 | 0.291 | 1.86 | 0.835 | 2.4 | 0.984 | 3.07 | 1.63 | 3.36 | 1.69 | 3.29 |
| CN(C)CCCn1c2c(c3cc4c(cc3c1=O)OCO4)C(=O)c1ccccc1-2 | 0.0131 | 1.96 | 7.61 | > 100 | 0.121 |  | 11.5 | 43.4 | 0.0472 | > 100 | 0.0793 |  | 4.59 | 35.2 | 2.36 | 6.46 | 3.57 | 13.4 | 1.54 | 14.9 |
| COCCOCCOCCOCCOC(=O)OC[n+]1ccc(NC(=NCCCCCCOc2ccc(Cl)cc2)NC#N)cc1 | 10.3 | 22.9 | 0.231 | 15.5 | 0.564 | 20.5 | 1.11 | 43.6 | 0.0369 | 18.2 | 4.58 | 20.5 |  | 18.7 | 4.69 | 19.3 | < 0.01 | 13.7 | 7.79 | 21.8 |
| COc1ccc2c(c1)C(=O)c1c-2c(=O)n(CCCN(C)C)c2cc(OC)c(OC)cc12 | 6.93 | 20.5 | 12.6 | 25.3 | 14.1 | 27.3 | 16.2 | 36.7 | 3.69 | 19.1 | 4.75 | 24 | 4.69 | 21.6 | 13.7 | 26.9 | 3.61 | 14.9 | 16.9 | 33 |
| CC1CCN(CCOc2ccc(CNc3ccc4nc(CCC5CCCCC5)[nH]c4c3)cc2)CC1 | 1.43 | 2.79 | 1.57 | 3.08 | 1.42 | 2.85 | 1.67 | 4.06 | 1.15 | 2.81 | 0.594 | 2.44 | 1.82 | 3.58 | 1.61 | 3.12 | 1.56 | 3.01 | 1.88 | 3.74 |
| C#CCNC(=O)NC(CCCCNC(=O)OCc1ccccc1)C(=O)OCc1ccccc1 (centres undefined) |  | > 100 |  | 46.9 |  | > 74.1 |  | > 100 |  | > 56.2 |  | > 100 |  | 17.1 |  | > 100 |  | 71.9 |  | 43.9 |
| O=S(=O)(O)c1ccc2cc3nn(-c4ccc(/C=C/c5ccc(-n6nc7cc8ccc(S(=O)(=O)O)cc8cc7n6)cc5S(=O)(=O)O)c(S(=O)(=O)O)c4)nc3cc2c1 | > 100 | > 100 | 74 | > 100 | 73.8 | > 100 | > 100 | > 100 | 59.1 | > 100 | 61 | > 100 | 78.4 | > 100 | > 100 | > 100 | > 100 | > 100 | > 100 | > 100 |
| COc1ccc(/C=N\Nc2nc(SCC(C)C)nc(-c3ccc(OC)cc3)c2C#N)cc1 | 1.86 | 9.33 | 3.72 | 23.4 | 24.7 | 99.4 | 3.98 | 30.9 | 3.19 | 20.1 | 19.1 | > 100 | 11.3 | 63.2 | 6.71 | 21.1 | 6.28 | 20.1 | 3.35 | 35.7 |
| CCOC(=O)C(Cc1ccc(N(CCCl)CCCl)cc1)NC(=O)C(Cc1ccccc1)NC(C)=O (centres undefined) |  | > 0.399 |  | > 0.321 |  | > 1 |  | > 1 |  | > 0.219 |  | > 0.502 |  |  |  | 0.361 |  | > 0.294 |  | > 0.486 |
| COc1cc2c(cc1NC(=O)C(Cl)Cl)-c1ccc(NC(=O)C(Cl)Cl)cc1C2 | 1.27 | 3.92 | 0.407 | 1.1 | 0.976 | 2.38 | 0.953 | > 34.7 | 0.201 | 0.641 | 0.438 | 3.64 | 5.83 | 19.7 | 0.569 | 1.25 | 0.633 | 2.22 | 1.02 | 3.54 |
| COc1ccc2nc3cc(Cl)ccc3c(N3CCN(c4ccnc(N5CCN(C)CC5)n4)CC3)c2c1 | 1.61 | 3 | 1.94 | 3.67 | 1.99 | 3.69 | 2.7 | 8.29 | 1.74 | 3.67 |  |  | 1.61 | 3.13 | 1.84 | 3.25 | 1.77 | 3.3 | 11.4 | 24.4 |
| O=c1[nH]c(=S)[nH]c(-c2ccccc2)c1Cc1c(O)ccc2ccccc12 |  | > 100 |  | 42.1 |  |  |  | > 100 |  | > 100 |  | > 100 |  | > 100 |  | > 100 |  | 82.1 |  | 62.7 |
| CC(C)(C)c1cc(C(=O)O)c2c(c1)C(=O)OC2(c1ccccc1)c1ccccc1C(=O)O (centres undefined) |  | > 100 |  | > 100 |  | > 100 | > 100 | > 100 |  | > 100 |  | > 100 |  |  |  | > 100 |  | > 100 |  | > 100 |
| C=CC[N+]1(CC)CCN=C1CCCCCCCCCCCCCCCCC (centres undefined) | 0.788 | 2.11 | 0.651 | 2.29 | 0.241 | 0.797 | 0.432 | 1.57 | 0.375 | 1.24 |  |  |  |  |  |  | 0.752 | 2.05 | 0.731 | 2.16 |
| CN1CCCC1c1cccnc1.O=C(O)c1ccccc1O.O=C([O-])c1ccccc1[OH2+].O=C([O-])c1ccccc1[OH2+].[Mn+2] (centres undefined) | > 100 | > 100 | > 100 | > 100 |  |  | > 100 | > 100 | 98 | > 100 | > 100 | > 100 | 16.7 | 36.4 | 21.3 | 70.5 |  |  | 56.7 | > 100 |
| COc1cc(/C=C/C(=O)O[C@H]2[C@H](O[C@@H]3O[C@@H](C)[C@H](O)[C@@H](O)[C@H]3O)[C@@H](O)[C@H](OCCc3ccc(O)c(O)c3)O[C@@H]2COC2OCC(O)(CO)C2O)ccc1O (some centres undefined) | > 100 | > 100 | > 100 | > 100 |  |  | 67.6 | > 100 |  |  | 63.3 | > 100 | > 100 | > 100 | > 100 | > 100 |  |  | > 100 | > 100 |
| N#Cc1cc2c(cc1Cl)Sc1nnc(Nc3cccc4ccccc34)n1S2(=O)=O | 16.9 | 45.4 | 2.34 | 4.52 |  |  | 2.89 | 9.74 | 3.96 | 12.7 | 4.08 | > 100 | 21.6 | > 100 | 1.77 | 3.47 | 2.4 | 5.2 | 14.8 | 30.1 |
| O=S(=O)(NCCCNc1nccc(-c2c(-c3ccc(F)cc3)nc3sccn23)n1)c1ccc(F)cc1 | 11 | > 100 | 6.23 | > 100 | 20.6 | > 100 | 9.66 | > 100 | 3.52 | 21.4 | 4.62 | > 100 | 10 | > 100 |  |  | 42.1 | > 100 | 21.9 | > 100 |
| COC1=C(OC)C(=O)C(CCCCCCCCCCO)=C(C)C1=O | 9.61 | 21.7 | 19.6 | 34 | 16.3 | 33.5 | 18.3 | > 100 | 14.5 | 31.6 |  |  | 11.2 | 35.3 | 10.2 | 24.7 | 7.49 | 20.3 | 1.84 | 4.48 |
| Cc1cc2c(c(=O)o1)C1=S(SC(c3ccccc3)=C1)S2 (centres undefined) |  | 28.8 |  | > 100 |  |  |  | 96 |  | > 100 |  | > 100 |  | > 100 |  | 75.2 |  | 56.4 |  | > 100 |
| C=CC(=O)N[C@@H](/C=C/C(=O)OCC)Cc1ccc(-c2cc(Cl)cc(Cl)c2)cc1 | 20.2 | 91 | 14.8 | 53.9 | 19.9 | 57.6 | 16.3 | 78.4 | 12.8 | 41.9 | 15.7 | > 100 | 7.6 | 24.9 | 7.27 | 53.1 | 16.6 | 39.1 |  |  |
| Clc1ccc([I+]c2ccc(Cl)cc2Cl)c(Cl)c1 | 2.09 | 4.36 | 1.95 | 3.64 |  |  | 2.48 | 8.81 | 1.78 | 3.26 | 2.03 | 5.1 | 1.62 | 3.01 | 1.65 | 3.09 | 1.8 | 3.39 | 2.38 | 5.8 |
| O=[N+]([O-])c1cc(Cc2cc([N+](=O)[O-])c3cccnc3c2O)c(O)c2ncccc12 |  | > 54.3 |  | 56 |  |  |  | 52.1 |  | > 73.1 |  | > 100 |  | 38 |  | 6.71 |  | > 96 |  | 14.1 |
| NC(=O)CC(N)c1nn[nH]n1 (centres undefined) |  | > 100 |  | > 100 |  |  |  | > 100 |  | > 100 |  | > 100 |  | > 100 |  | > 100 |  | > 100 |  | > 100 |
| Nc1nc(C(=O)O)c(N=Nc2ccccc2)c(=O)[nH]1 |  | > 100 |  | > 100 |  |  |  | > 100 |  | > 100 |  | > 100 |  | > 100 |  | > 100 |  | > 100 |  | > 100 |
| Clc1nc(Cl)c2ncn(CCOCCn3cnc4c(Cl)nc(Cl)nc43)c2n1 | 0.325 | 0.935 | 0.204 | 0.374 | 0.213 | 0.382 | 0.289 | 0.693 |  |  | 0.361 | > 100 | 0.684 | 2.22 | 0.199 | 0.346 | 0.17 | 0.381 | 0.235 | 0.488 |
| N#CC1C(N)=NNC12Nc1ccccc1S2 (centres undefined) | 63.4 | > 100 | 26.5 | 82.5 |  |  | 17.4 | 71.7 |  |  | 14.1 | 34.7 | 7.8 | 29.7 | 10.3 | 43.9 |  |  | 13.6 | 44.4 |
| O=C1C(Nc2cccc(O)c2)=C(Sc2ccccc2)C(=O)N1Cc1ccccc1 | 20.7 | 39.4 | 17 | 35.9 |  |  | 11.5 | 43.8 | 14.3 | 29.8 | 3.71 | 17.1 | 5.75 | 23.9 | 4.83 | 19.9 |  |  |  |  |
